According to US7533723B2, “Well bore treatment fluid” (Schlumberger Technology Corporation, priority 2003, dated 2009):
Where “and” joins values, the source holds several entries; their conditions need not be identical. Equal entries are not always repeated. Values belong to the molecule of their own block, whether it stands above or below them.

Key:
[1] = Excerpt: For the case of abietic acid, calcium abietate (Dertocal), polymerised calcium abietate (MERIGRAL™) and the phenolic modified resins (RESENOL™ and GRANOLITE™), insoluble residues were removed by filtration and the numbers given in Table 1 relate to the soluble fraction after filtration.
[2] = Well-mixed bottle tests: dilution of treatment fluid with brine or oil; format: physicochemical; details: T=25° C.
Description: In this case, the DPM solvent is 100% miscible with oil or brine.
Note that the oil and the treatment fluid are miscible.

[3] = Selective response in porous media, two feet long sandpacks (water zone / oil zone); details: for Brine permeability reduction corrected for treatment depth: water zone
Description: Candidate solvent-based treatment fluids were evaluated in porous media. […] Duplicate two feet long sandpacks were prepared using a specific blend of sand and silica flour.
Experiments were used to evaluate a treatment fluid containing 5 wt % calcium abietate pre-dissolved in a DPM/brine mixture.

[4] = remark: listed apart in the source
Description: Sandpack experiments were performed to evaluate the recovery of oil permeability after brine-induced precipitation.
The permeability ratio K(oil)/initial K(brine) is shown on the vertical y axis and this is plotted against the brine saturation (vol %) in the core.
The dark curve plotted with diamonds relates to the experiment wherein the starting point is a 10-ft pack saturated with brine (Sw=1, brine permeability Kw=960 mD). Oil is then flushed through it until the steady state is reached. During this operation, the water saturation in the pack decreases as water is mobilized and removed by the flow of oil. The oil permeability (Ko) is determined regularly during the process. The ratio K(oil)/initial K(brine) is then calculated and plotted against the water saturation. The oil permeability at steady state is 1300 mD, which gives Ko/Kwi=1.35 at Sw=29.5%.
The lighter curve plotted with triangles relates to the experiment wherein the 10-ft pack is saturated with brine (Sw=1, brine permeability Kw=800 mD). Half of it is then treated with 5 wt % resinate (calcium abietate, Dertocal) dissolved in solvent (DPM). Brine is then backflowed through the pack until the steady state is reached. […] Then, oil is flushed through the pack until the steady state is reached (Ko=1061 mD). Again, the ratio K(oil)/initial K(brine) is calculated and plotted against the water saturation. […]

[5] = Brine follow-up treatments, series of 3 treatments in 2-ft sand pack; details: 10 wt % in DPM
Description: The selective response to injections of treatment fluid and brine was carried out in porous media.
An experiment was performed in a 2-ft sand pack at ambient temperature and Sw=1. The experiment consisted in a series of 3 pack treatments (using a process of treatment fluid injection followed by brine injection), followed by brine backflow between each of the three treatments. The fluid used was 10 wt % resinate (calcium abietate, Dertocal) dissolved in DPM.
The volume of the treated zone is ⅔ of the pore volume (⅓ treatment fluid+⅓ brine). As shown, permeability reduced with each treatment.

[6] = Berea sandstone permeability experiments; details: 10 wt % in DPM, brine postflush, 20 psi/ft
Description: An experiment was performed in a 1 foot 250 mD Berea sandstone core at Sw=1, using a process of treatment fluid injection followed by follow-up brine injection.
Treatment fluid used: 10 wt % resinate (Calcium abietate, Dertocal) in solvent (DPM). The volume of the treated zone was ⅔ of the pore volume (⅓ treatment fluid+⅓ brine).
Brine permeability before treatment: 250 mD.
Brine permeability in the treated zone was reduced by 70%. The biggest damage (precipitation) appeared near the wellbore (region 1) where the reduction was 73%.
The biggest damage appeared near the wellbore (regions 1) where the reduction was 60%.

[7] = Abietate in pure diesel, Berea sandstone water and oil zones; details: 30 wt % dissolved in diesel, 50° C.
Description: The plot of FIG. 9 deals with the performance in water zones at 50° C. (Berea sandstone, k 100-150 mD; brine: 5 wt % NH4Cl in DI water) of the oil-based system (no miscibility with water/brine). The system contained 30 wt % calcium abietate dissolved in diesel.
The damage in the water zone was a function of the oil saturation prior to treatment. […] Since the brine and diesel-based treatment fluid are immiscible, it is unlikely that the precipitation of waxy solids accounts for the damage observed. Whilst it is possible that some minor precipitation may occur at interfaces, we suspect a viscous oil or viscous interface effect may be playing a role in reducing kbrine after backflow to steady-state.

Solubility, Brine wt % [1]: 0.01 wt % | Solubility, Solvent wt % (solvent chemistry) [1]: ≧30 (DPM^(3)), ≧30 (EB^(4)) wt % | Behaviour on dilution with brine: [brine] at precipitation ([2]; 5 wt % dissolved in pure DPM): [brine] = 33 vol %
Molecule: CC(C)C1=CC2=CCC3[C@](C)(CCC[C@@]3(C)C(=O)O)C2CC1 (stereo partly drawn) [Abietic Acid, Abietic acid]

Molecule: CC(C)C1=CC2=CCC3C(C)(C(=O)O)CCCC3(C)C2CC1 (stereo not drawn) [Ca Abietate, Calcium abietate]
Solubility, Brine wt % [1]: 0.01 wt % | Behaviour on dilution with brine: [brine] at precipitation ([2]; 5 wt % dissolved in pure DPM): [brine] = 23 vol % | Brine permeability reduction corrected for treatment depth ([3]; 5 wt % pre-dissolved in DPM/brine mixture): 54% | Brine permeability reduction corrected for treatment depth ([3]; 20 wt % in DPM, 20 psi/ft, 25° C.): 65% and 69% | Effect on permeability to oil ([3]; not told): no effect on permeability to oil | Brine permeability reduction ([4]; 5 wt % in DPM, half of 10-ft pack treated, brine backflow to steady state): 25% | Oil permeability Ko at steady state after oil flush ([4]; not told): 1061 mD | % Reduction (cumulative) ([5]; after treatment I): 51% | % Reduction (cumulative) ([5]; after treatment II): 72% | % Reduction (cumulative) ([5]; after treatment III): 88% | Brine permeability reduction in the treated zone ([6]; T=60° C.): 33.5% | Brine permeability reduction near the wellbore (regions 1) ([6]; T=60° C.): 60% | Brine permeability reduction in the treated zone ([6]; ambient temperature): 70% | Brine permeability reduction near the wellbore (region 1) ([6]; ambient temperature): 73% | % retained koil in oil zones [7]: 85-100% | kbrine reduction in water zones ([7]; So(pre-treatment) range 0-25%, brine 5 wt % NH4Cl): ≥ 70%

Solubility, Brine wt % [1]: very | Solubility, Oil wt % [1]: ≧50.0^(7) wt % | Solubility, Solvent wt % (solvent chemistry) [1]: ≧50.0 (DPM^(3)) wt %
Molecule: CC12CCC(CC1=O)C2(C)C (stereo not drawn) [Camphor, camphor]

Molecule: calcium neo-decanoate [Ca neo-Decanoate (dry^B)]
Behaviour on dilution with brine: [brine] at precipitation ([2]; 10 wt % dissolved in pure DPM): [brine] = 67 vol %

Molecule: calcium neo-tridecanoate [Ca neo-Tridecanoate (dry)]
Behaviour on dilution with brine: [brine] at precipitation ([2]; 10 wt % dissolved in pure DPM): [brine] = 70 vol %
